Test results as given in patent US20230310540A1, “PEPTIDE COMPOSITIONS AND METHODS OF USE THEREOF” (priority 2020, published 2023).
Values after ≈ are worked out from the molar mass of the structure shown. Where two headings read alike, the source gives them in different places. Bridge positions count the residues as written; N and C are the ends. Square brackets hold non-standard residues; d marks the D form. Peptide text beside a SMILES is read from it. βAla = NCCC(=O)O

Tests used:
[1] = tested on: Methicillin-resistant Staphylococcus aureus (SAP400); test: Broth dilution MIC against MRSA isolate; assay type: cell-based
[2] = tested on: Acinetobacter baumannii (PDR); test: Broth dilution MIC against pan drug-resistant A. baumannii isolate; assay type: cell-based; conditions: isolate AB (PDR)
[3] = tested on: Pseudomonas aeruginosa (CF mucoid and non-mucoid); test: Broth dilution MIC against P. aeruginosa isolates from cystic fibrosis patients; assay type: cell-based
E. coli = assay type: cell-based; conditions: for MIC in Broth Dilution, E. coli, RBC −: absence of RBC; for MIC in Broth Dilution, E. coli, RBC − / MIC in Broth Dilution, E. coli, RBC +: Table 3; for MIC, E. coli, No RBC / MIC, E. coli, 10^9 cells/ml RBC: Table 2; for MIC in Broth Dilution, E. coli, RBC +: presence of 1×10^9 human RBC/ml; for MIC, E. coli, 10^9 cells/ml RBC: with 10^9 human RBC/ml
Procedure: (§1) Peptide variants of D-CONGA (SEQ ID NO: 1) were tested for activity against E. coli, K. pneumoniae, and S. aureus. Minimum Inhibitory Concentrations (MIC) were measured in 96-well plates by broth dilution. Peptides were serially diluted in buffer or in buffer containing 1×10^9 human RBC/ml. Following 1 hr. incubation, bacteria in growth media were added and the plates were incubated overnight at 37° C. Sterilized, wells were identified to determine MIC. Hemolysis was measured by incubating 1×10^8 human RBCs with serially diluted peptide for 30 minutes followed by centrifugation of the cells and measurements of the released hemoglobin in the supernatant by absorbance at 410 nm. The value for 100% hemolysis was established by treatment with the detergent Triton-X100. Toxicity was measured by incubating serially diluted peptide with WI38 human fibroblast cells in the presence of SYTOX Green, a DNA binding dye that reports on cell death by membrane permeabilization. The peptide concentration that gives 50% cytotoxicity by relative SYTOX Green fluorescence, is denoted EC50.
(§2) Antimicrobial peptides and conventional antibiotics were prepared at 5-times the final concentration needed in 0.025% acetic acid. The antibiotics were serially diluted by a factor of 2:3 horizontally across 96-well plates from Corning, 25 μL per well. One column was reserved for controls. For the assays performed in the presence of RBC, type O+ human RBCs at 0 or 2.5×10^9 cells/mL were added in 50 μL aliquots to all wells. Following a 30-minute incubation, 50 μL of TSB, inoculated with 5×10^5 CFU/mL, was added to all wells, and plates were incubated overnight at 37° C. Following overnight incubation at 37° C., the OD600 was measured (values of less than 0.1 were considered sterilized). To assess bacterial growth in the assays with RBC, the OD600 was measured after a second day inoculation with 10 μL of solution from the original plate added to 100 μL of sterile TSB followed by overnight incubation.
(§3) MIC values were reported in μM peptide against gram-negative E. coli (EC), P. aeruginosa (PA), and gram-positive S. aureus (SA). The two columns under each organism are for assays performed in the absence (−) and presence (+) of 1×10^9 human RBC/ml. “>30” means that sterilization was not observed at 30 μM, the highest concentration tested. The column marked “hemolysis” is the fractional hemolysis of 1×10^8 human RBC/ml at 100 μM peptide determined from measurements of serially diluted peptide, starting from 100 μM. The column marked “EC 50” contains the concentration of peptide that kills 50% of WI-38 human fibroblast cells assayed by entry of SYTOX™ Green DNA binding dye.

K. pneumoniae = assay type: cell-based; conditions: for MIC in Broth Dilution, K. Pneumoniae, RBC +: presence of 1×10^9 human RBC/ml; for MIC, K. pneumoniae, 10^9 cells/ml RBC: with 10^9 human RBC/ml
Procedure: as §1, §2, §3

S. aureus = assay type: cell-based; conditions: for MIC in Broth Dilution, S. Aureus, RBC −: absence of RBC; for MIC in Broth Dilution, S. Aureus, RBC − / MIC in Broth Dilution, S. Aureus, RBC +: Table 3; for MIC, S. aureus, No RBC / MIC, S. aureus, 10^9 cells/ml RBC: Table 2; for MIC in Broth Dilution, S. Aureus, RBC +: presence of 1×10^9 human RBC/ml; for MIC, S. aureus, 10^9 cells/ml RBC: with 10^9 human RBC/ml
Procedure: as §1, §2, §3

human RBCs = test: Hemolysis of human RBCs; assay type: cell-based
Procedure: as §1
Peptide was serially diluted in PBS starting at a concentration of 100 μM. The final volume of peptide in each well was 50 μL. To each well, 50 μL of RBCs in PBS at 2×10^8 cells/mL was added. As a positive lysis control, 1% triton was used. The mixtures were incubated at 37° C. for 1 hour, after which they were centrifuged at 1000 g for 5 minutes. After centrifugation, 10 μL of supernatant was transferred to 90 μL of DI H2O in a fresh 96-well plate. The absorbance of released hemoglobin at 410 nm was recorded and the fractional hemolysis was calculated based on the 100% and 0% lysis controls.
as §3

[4] = tested on: WI-38 human fibroblast cells; test: SYTOX Green cytotoxicity assay; assay type: cell-based
Procedure: Peptide variants of D-CONGA (SEQ ID NO: 1) were tested for activity against E. coli, K. pneumoniae, and S. aureus. Minimum Inhibitory Concentrations (MIC) were measured in 96-well plates by broth dilution. […] Following 1 hr. incubation, bacteria in growth media were added and the plates were incubated overnight at 37° C. Sterilized, wells were identified to determine MIC. […] The value for 100% hemolysis was established by treatment with the detergent Triton-X100. Toxicity was measured by incubating serially diluted peptide with WI38 human fibroblast cells in the presence of SYTOX Green, a DNA binding dye that reports on cell death by membrane permeabilization. The peptide concentration that gives 50% cytotoxicity by relative SYTOX Green fluorescence, is denoted EC50. WI-38 cells were grown to confluency in T-75 flasks in complete DMEM (with 15% FBS, plus antibiotics and non-essential amino acids). The day prior to cytotoxicity experiments, cells were trypsinized, removed from the flask, and pelleted. Cells were resuspended in complete DMEM and the cell count was obtained using a cell counter. The cells were then seeded at a density of 10,000 cells/well in a 96-well tissue-culture plate. […] To perform the cytotoxicity assay, media from wells of overnight cell culture plate was removed, washed once with PBS and treated with 50 μl of the peptide and SYTOX™ Green mixture. The plate was read for fluorescence, every 5 minutes, for an hour at the excitation wavelength of 385 nm and emission wavelength of 530 nm. MelP5, a potent MPP, that causes 100% SYTOX™ Green entry into the cells was used as a positive control to normalize the cytotoxicity of peptides tested. MIC values were reported in μM peptide against gram-negative E. coli (EC), P. aeruginosa (PA), and gram-positive S. aureus (SA). […] The column marked “EC 50” contains the concentration of peptide that kills 50% of WI-38 human fibroblast cells assayed by entry of SYTOX™ Green DNA binding dye.

[5] = tested on: Klebsiella pneumoniae clinical isolates; conditions: clinical isolates
[6] = fractional hemolysis of 1×10^8 human RBC/ml at 100 μM peptide, Table 3
[7] = fractional hemolysis of human RBCs at 100 μM peptide, Table 2
[8] = 50% cytotoxicity by SYTOX Green, Table 2, read-out: EC50, μM (WI-38 Cells)

Compound | MIC in Broth Dilution, E. coli, RBC − (E. coli) [µM] | MIC, E. coli, No RBC (E. coli) [µM] | MIC in Broth Dilution, E. coli, RBC + (E. coli) [µM] | MIC, E. coli, 10^9 cells/ml RBC (E. coli) [μM] | MIC in Broth Dilution, K. Pneumoniae, RBC + (K. pneumoniae; Table 3) [µM] | MIC in Broth Dilution, S. Aureus, RBC − (S. aureus) [µM] | MIC, S. aureus, No RBC (S. aureus) [µM] | MIC, K. pneumoniae, 10^9 cells/ml RBC (K. pneumoniae; Table 2) [μM] | MIC in Broth Dilution, S. Aureus, RBC + (S. aureus) [µM] | MIC, S. aureus, 10^9 cells/ml RBC (S. aureus) [μM] | Hemolysis at 100 μM (human RBCs) | EC50 [4, 8] [µM] | also measured
CC1(C)S[C@@H]2[C@H](NC(=O)[C@H](N)c3ccccc3)C(=O)N2[C@H]1C(=O)O [AMP, Ampicillin] | – | – | – | – | – | – | – | – | – | – | – | – | MIC [1]: >150 µM; MIC [2]: >150 µM; MIC ([3]; isolate PA (mucoid)): >150 µM; MIC ([3]; isolate PA (non-mucoid)): >150 µM
CC(C)C[C@@H]1NC(=O)[C@H](CCCNC(=N)N)NC(=O)[C@H](CCCNC(=N)N)NC(=O)[C@H](C)NC(=O)[C@H](Cc2c[nH]c3ccccc23)NC(=O)[C@H](CCCNC(=N)N)NC(=O)[C@H](CCCNC(=N)N)NC(=O)CC[C@@H](C(N)=O)NC(=O)[C@H](CCCNC(=N)N)NC(=O)[C@H](CCCNC(=N)N)NC(=O)[C@H](Cc2ccccc2)NC(=O)[C@H](C)NC(=O)[C@H](Cc2ccccc2)NC(=O)[C@H](C)NC1=O [CYCLIZED-L-CONGA-E] (RRWARRLAFAFRRE-NH2; lactam N-14) | 22.9 (≈ 42.9 µg/mL) | 24 (≈ 44.9 µg/mL) | >30 | 30 | >30 | >30 | 30 (≈ 56.2 µg/mL) | – | – | – | – | – | Hemolysis at 100 μM (human RBCs; [6]): 0.03; Hemolysis at 100 μM (human RBCs; [7]): 0.03
CC(C)C[C@@H]1NC(=O)[C@H](CCCNC(=N)N)NC(=O)[C@H](CCCNC(=N)N)NC(=O)[C@H](C)NC(=O)[C@H](Cc2c[nH]c3ccccc23)NC(=O)[C@H](CCCNC(=N)N)NC(=O)[C@H](CCCNC(=N)N)NC(=O)[C@H](CCCNC(=N)N)NC(=O)[C@H](CCCNC(=N)N)NC(=O)[C@H](Cc2ccccc2)NC(=O)[C@H](C)NC(=O)[C@H](Cc2ccccc2)NC(=O)[C@H](C)NC1=O [CYCLIZED-L-CONGA-OH] (cyclo(RRWARRLAFAFRR)) | 5.9 (≈ 10.3 µg/mL) | 5.9 (≈ 10.3 µg/mL) | 13.3 | 13.3 | 6 | 20 (≈ 34.9 µg/mL) | 20 (≈ 34.9 µg/mL) | – | – | – | – | – | Hemolysis at 100 μM (human RBCs; [6]): 0.7; Hemolysis at 100 μM (human RBCs; [7]): 0.7
CC(C)C[C@@H](NC(=O)[C@@H](CCCNC(=N)N)NC(=O)[C@@H](CCCNC(=N)N)NC(=O)[C@@H](C)NC(=O)[C@@H](Cc1c[nH]c2ccccc12)NC(=O)[C@@H](CCCNC(=N)N)NC(=O)[C@H](N)CCCNC(=N)N)C(=O)N[C@H](C)C(=O)N[C@H](Cc1ccccc1)C(=O)N[C@H](C)C(=O)N[C@H](Cc1ccccc1)C(=O)N[C@H](CCCNC(=N)N)C(=O)N[C@H](CCCNC(=N)N)C(N)=O [D-CONGA, rrwarrlafafrr (All D), reference compound] (H-[dR][dR][dW][dA][dR][dR][dL][dA][dF][dA][dF][dR][dR]-NH2) | – | 1.0 (≈ 1.76 µg/mL) | – | 0.8 | – | 5.7 (≈ 10 µg/mL) | 5.7 (≈ 10 µg/mL) | 3.8 | 6.3 | 6.3 | 0.06 | 110 | –
CC(C)C[C@@H](NC(=O)[C@@H](CCC(N)=O)NC(=O)[C@@H](CCCNC(=N)N)NC(=O)[C@@H](CCCNC(=N)N)NC(=O)[C@@H](C)NC(=O)[C@@H](Cc1c[nH]c2ccccc12)NC(=O)[C@@H](CCCNC(=N)N)NC(=O)[C@H](N)CCCNC(=N)N)C(=O)N[C@H](C)C(=O)N[C@H](Cc1ccccc1)C(=O)N[C@H](C)C(=O)N[C@H](Cc1ccccc1)C(=O)N[C@H](CCCNC(=N)N)C(=O)N[C@H](CCCNC(=N)N)C(N)=O [D-CONGA-Q7, rrwarrqlafafrr (All D)] (H-[dR][dR][dW][dA][dR][dR][dQ][dL][dA][dF][dA][dF][dR][dR]-NH2) | 1 (≈ 1.89 µg/mL) | 1 (≈ 1.89 µg/mL) | 1.7 | 1.7 | – | 4.2 (≈ 7.93 µg/mL) | 4.2 (≈ 7.93 µg/mL) | 1.5 | 3.6 | 3.6 | 0.07 | 418 | MIC [5]: 1.8 µM (≈ 3.4 µg/mL); EC50 against WI-38 cells relative to that of D-CONGA [4]: four times higher; Toxicity against WI-38 cells (in words) [4]: lower cytotoxicity
CC(C)C[C@@H](NC(=O)CCNC(=O)[C@@H](CCCNC(=N)N)NC(=O)[C@@H](CCCNC(=N)N)NC(=O)[C@@H](C)NC(=O)[C@@H](Cc1c[nH]c2ccccc12)NC(=O)[C@@H](CCCNC(=N)N)NC(=O)[C@H](N)CCCNC(=N)N)C(=O)N[C@H](C)C(=O)N[C@H](Cc1ccccc1)C(=O)N[C@H](C)C(=O)N[C@H](Cc1ccccc1)C(=O)N[C@H](CCCNC(=N)N)C(=O)N[C@H](CCCNC(=N)N)C(N)=O [D-CONGA-βa7, rrwarr-βa-lafafrr (All D)] (H-[dR][dR][dW][dA][dR][dR][βAla][dL][dA][dF][dA][dF][dR][dR]-NH2) | – | – | – | – | – | – | – | – | – | – | 0.02 | – | Toxicity against WI-38 cells (in words) [4]: least toxic of the variants
rrwa (nor r, nor r)lafafrr [D-CONGA-NorR] | 1.9 | 1.9 | 2.4 | 2.4 | 11.8 | 7.6 | 7.6 | 12 | 17.2 | 17.2 | – | 66 | MIC in Broth Dilution, K. Pneumoniae, RBC − (K. pneumoniae; absence of RBC, Table 3): 13.3 µM; MIC, K. pneumoniae, No RBC (K. pneumoniae; no RBC, Table 2): 13 µM; EC50 ([4]; kills 50% of WI-38 cells, SYTOX Green entry, Table 3, read-out: EC50, μM (WI-38)): 66 µM
